Assay results published in patent US9399145B2, “Nanoscale neuromodulating platform for retina neuron activation apparatus and method” (The Board of Trustees of the University of Illinois, priority 2005, dated 2016).

What was measured:
α1β3γ2 GABAAR = molecular target: T1, α1β3γ2 GABAAR (UniProt P28472+P62813); experiment: Two-electrode voltage clamp of α1β3γ2 GABAAR-expressing oocytes; type: cell-based; details: 1 μM trans-MPC088 with 1 μM GABA (~EC3)
T1 construct: expressed in transfected cells; host or cells: Xenopus oocytes
Source text: Propofol is known to modulate GABAA receptors that contain a β subunit. […] Data in each group was obtained from 4 oocytes. […] Aggregate concentration-response data was also obtained from α1β3γ2 (squares) and α4β3δ (circles) receptors with trans-dominant MPC088 alone (FIG. 37b). Data was similarly normalized to the saturating GABA response obtained from each oocyte. Results for α1β2γ2 GABAARs in a and b (triangles) were reproduced from those of FIGS. 35c and 36b, respectively.
(§1) The activity of trans-dominant MPC088 was also tested at receptors containing the β-subunit substitution N265M, a mutation that markedly reduces the action of propofol both in vitro and in vivo (Jurd et al. (2003); Siegwart et al. (2002)). […] For each receptor type, illustrated responses are representative data obtained from a single oocyte.

α1β3(N265M)γ2 GABAARs = molecular target: T2, α1β3(N265M)γ2 GABAARs (UniProt P28472+P62813, N290M); experiment: Two-electrode voltage clamp of α1β3(N265M)γ2 GABAAR-expressing oocytes; type: cell-based; details: 1 μM trans-MPC088 with 3 μM GABA (~EC2)
T2 construct: expressed in transfected cells; host or cells: Xenopus oocytes
Procedure: as §1

[1] = tested on: GABAARs of cerebellar PNs; experiment: Test for direct agonist activity on Purkinje neurons (recirculating MPC088, no exogenous GABA); type: cell-based, mouse
Procedure: To test for direct agonist activity of MPC088 on PNs, cerebellar slices were perfused with recirculating 30 μM MPC088 (the maximal MPC088 concentration that could be reliably maintained solubilized in bicarbonate-buffered solution). MPC088 was converted to cis-dominant form by a 2-min exposure to UV light (LED, 365 nm/160 mW, Mouser, Inc., Mansfield, Tex.; LED driver, 700 mA BuckPuck DC Driver, Quadica Developments, Inc., Brantford, Ontario, Canada), before its dilution into the recirculating external solution. The same LED was then used to continuously UV-illuminate the recirculating solution for the duration of the experiment. Whole-cell voltage clamp recordings were obtained from PNs and determined the change in membrane current produced by alternating blue and UV illumination of the slice, as in the FIG. 40 experiments. […] The temporal sequence of illumination differed among the experiments (e.g., only the cell in a received multiple blue/UV exposures), but the data plotted are the amplitudes from the blue to UV transition (in the case of the cell in a, this is the blue/UV transition from the first of the three exposures). Yellow-filled data points indicate results from the experiment in a. Each data point is the average obtained from 4-10 consecutive recordings. […] Error bars represent the SEM (FIG. 42b).

α4β3δ GABAAR = molecular target: T3, α4β3δ GABAAR (Homo sapiens, UniProt P28472+P48169); experiment: Two-electrode voltage clamp of α4β3δ GABAAR-expressing oocytes; type: cell-based
T3 construct: expressed in transfected cells; host or cells: Xenopus oocytes
Source text: Propofol is known to modulate GABAA receptors that contain a β subunit. […] Data in each group was obtained from 4 oocytes.

[2] = tested on: Purkinje neurons (PNs) of the cerebellar slice; experiment: Whole-cell current clamp of Purkinje neurons, action potential firing; type: cell-based, mouse
Procedure: The effects of MPC088 on action potential firing in PNs of the cerebellar slice were also examined. These experiments were similar to those, except that the cells were recorded under current-clamp in order to allow the cell to spike. […] Representative data was obtained by whole-cell current-clamp recording from a PN which was injected with 468 pA to elicit a high-frequency train of action potentials. […] The cell was then exposed for 1-s durations to UV light (UV1), then blue light, and then again with UV (UV2). […] Below this trace is plotted the instantaneous firing frequency vs. time; the dashed line reflects the average firing frequency during the 1-s epoch that preceded the first UV exposure (FIG. 41a). FIG. 41b depicts a summary of results from experiments of the type shown in a. Average spike frequencies were obtained for each cell in each of five 1-s epochs, then normalized to the pre-GABA/MPC088 firing frequency (n=8 cells from 4 animals). Error bars here and in c represent the SEM. Repeated-measures ANOVA on the aggregate data yielded F(3,21)=10.213, p<0.001. […] Significance was determined from post-hoc paired-sample t-tests corrected for multiple comparisons, which yielded p<0.02. […]
To further address whether MPC088 has non-specific effects on excitability, the spikes elicited in the experiment described in FIG. 41 were analyzed. […] Three action potential (AP) parameters were measured: peak amplitude, half width, and maximum rise slope. […] AP waveform parameters were calculated for pre-puff, blue light, and UV epochs. […]
For the voltage-clamp experiments of FIG. 40, each cell was […] between 1-6 trials of the drug application+light flash protocol. […] A peri-stimulus time histogram (PSTH) was calculated for each trial using 250-ms time bins; these were averaged across trials to produce a PSTH for the experiment, using the software TaroTools (Dr. Taro Ishikawa, Jikei University School of Medicine, Tokyo, Japan) and Igor Pro 6.2 (WaveMetrics, Inc., Lake Oswego, Oreg.).

Hydrophobicity (log P) = type: physicochemical

response enhancement (α1β3γ2 GABAAR): 4.4±1.3 fold
response enhancement (α1β3(N265M)γ2 GABAARs): 2.9±0.8 fold
plateau of response function relative to response with high GABA concentration (α4β3δ GABAAR; co-applied 50 nM GABA (~EC8)): ~42%
logP (Hydrophobicity (log P)): > 6
SMILES: CC(C)c1cc(CCCC(=O)NCc2ccc(/N=N/c3ccc(C(=O)NCCN)cc3)cc2)cc(C(C)C)c1O [MPC088, (E)-N-(2-Aminoethyl)-4-((4-((4-(4-hydroxy-3,5-diisopropylphenyl)butanamido)methyl)phenyl)diazenyl)benzamide]
average light-evoked current change ([1]; 30 μM recirculating, blue/UV illumination, subset of 28 of 44 cells with change >18 pA): 80±13 pA
mode of action in cerebellar tissue ([1]; concentrations comparable to or lower than 30 μM): modulatory (endogenous GABA-dependent) rather than agonistic
direct agonist activity (α4β3δ GABAAR; compound alone): much lower than those at α1β3γ2 and α1β2γ2
firing rate produced by blue light relative to that produced by UV light ([2]; 10 μM GABA + 30 μM MPC088, UV-Blue-UV flashes): 52±14%
decrease of firing rate ([2]; 10 μM GABA + 30 μM trans-dominant MPC088): approximately 50%
effects on AP waveform ([2]; peak amplitude, half width, maximum rise slope): no detectable effects
